Test results taken from patent US8114453B2, “Synergistically heat stable oil media having eicosa pentanoic acid (EPA) and docosa hexaenoic acid (DHA)” (Recon Oil Industries Private Limited, priority 2005, dated 2012).

Assays:
[1] = clinical trial, reported in background; cited from earlier work
[2] = Fatty acid composition of oils before and after heating (air incorporated by stirring) by Gas Liquid Chromatography; type: physicochemical; settings: from the fish oil source, heated with air incorporated
From the text: The heat stability of the highly unsaturated and easily oxidisable EPA/DHA in the oil blend of the invention, EPA/DHA from available sources of enriched fish oil was blended with groundnut oil in various proportions and the stability of the formulations tested is importantly to further confirm the unexpected and synergistic heat stability achieved by the oil formulation of the invention incorporating the EPA/DHA, oil blends with varying amount of active benefit agent EPA/DHA heated from ambient to upto 220 deg.C were tested. To maximize the process of deterioration, apart from heating at 180 deg.C, 200 deg.C and 220 deg. C., air was incorporated during heating by using a magnetic stirrer.

Q: With `CC/C=C\C/C=C\C/C=C\CCCCCCCC(=O)O` [ALNA, Alpha linolenic acid] as the compound, how does the “Effect on triglyceride levels” value [1] read?
A: not effective to reduce triglyceride levels

Q: Which “Heat stability of the fatty acid” value [2] does the source give for `CC/C=C\C/C=C\C/C=C\C/C=C\C/C=C\CCCC(=O)O` [EPA, Eicosa Pentaenoic Acid] here?
A: heat stable even at temperatures of up to 220 deg. C.

Q: For `CC/C=C\C/C=C\C/C=C\C/C=C\C/C=C\C/C=C\CCC(=O)O` [DHA, Docosa Hexaenoic Acid], which “Heat stability of the fatty acid” value [2] is on record?
A: heat stable even at temperatures of up to 220 deg. C.
